Experimental data from ChEMBL document CHEMBL1142113, “Limonoids from the seeds of the marine mangrove Xylocarpus granatum” (J Nat Prod, 2007).
pIC50: −log10 of the molar value.

Key:
P388 = experiment: Cytotoxicity against mouse P388 cells by MTT method; format: cell-based; conditions: for pIC50: Mus musculus, P388; for Activity: mouse, p388
A549 = experiment: Cytotoxicity against human A549 cells by SRB method; format: cell-based; conditions: for pIC50: Homo sapiens, A549; for Activity: human, a549

Structure (SMILES) | pIC50 (P388) | pIC50 (A549) | Activity (P388) | Activity (A549)
C/C=C(\C)C(=O)O[C@H](C1=CC(C)(C)[C@H](CC(=O)OC)[C@@H](C)C1=O)[C@@]1(O)C(=O)CC[C@]2(C)C1=CC(=O)O[C@H]2c1ccoc1 [GRANAXYLOCARPIN B] | 5.31 | < 5.00 | – | –
COC(=O)[C@H](O)[C@H]1[C@]2(C)C[C@]3(OC(C)=O)[C@H]([C@H]2OC(C)=O)[C@@H](OC(C)=O)[C@]2(O)[C@@H]4CC(=O)O[C@@H](c5ccoc5)[C@]4(C)[C@@H](OC(C)=O)C[C@@H]2[C@]13C [GRANAXYLOCARPIN D] | – | – | Not Active | Not Active
COC(=O)C1=CC[C@@]23CC[C@@H]([C@@](C)(/C=C/C=C(\C)C(=O)O)OC2=O)[C@@]3(OC(C)=O)CC1 [PSEUDOLARIC ACID B] | 6.13 | – | – | –
COC(=O)[C@H](OC(C)=O)[C@H]1[C@]2(C)C[C@]3(OC(C)=O)[C@H]([C@H]2OC(C)=O)[C@@H](OC(C)=O)[C@]2(O)[C@@H]4CC(=O)O[C@@H](c5ccoc5)[C@]4(C)CC[C@@H]2[C@]13C [GRANAXYLOCARPIN E] | – | – | Not Active | Not Active
CCC(C)C(=O)O[C@@H]1C([C@@H](OC(C)=O)[C@@]2(O)C(=O)CC[C@]3(C)C2=CC(=O)O[C@H]3c2ccoc2)C(=O)[C@H](C)[C@@H](CC(=O)OC)C1(C)C (stereo partly specified) [GRANAXYLOCARPIN A] | 5.03 | < 5.00 | – | –
C/C=C(\C)C(=O)O[C@@H]1[C@@H]2[C@H]3O[C@@]34[C@H](CC[C@@]3(C)[C@H](c5ccoc5)OC(=O)C[C@@]43O)[C@]3(C)[C@@H](CC(=O)OC)[C@]1(C)CO[C@]23O [GRANAXYLOCARPIN C] | – | – | Not Active | Not Active
